# Measured values reported in publication PMC11172478, “1,3,5-Triazine as Branching Connector for the Construction of Novel Antimicrobial Peptide Dendrimers: Synthesis and Biological Characterization” (International Journal of Molecular Sciences, 2024).
# Starred links: 1 amine or outer side, 2 acyl side, 3 side chain; linkers in the order of their positions; H or OH if unused. Positions of bridges follow the written chain, without caps; N, C: chain ends. Residues, ends and D or L forms follow the SMILES beside them. Chains are numbered I, II in the order given. X1 = O=C(c1ccc(Oc2nc(NCCN[*:2])nc(NCCN[*:3])n2)cc1)[*:1]
# What was measured:
# P. aeruginosa ATCC 27853 [1] = assay: Bacterial growth curves; type: cell-based; conditions: P. aeruginosa ATCC 27853, TSB, MIC, ½ MIC and ¼ MIC, 24 h, 37 °C, OD 850 nm
# Method: The real-time effect of the peptide dendrimers was examined on the growth curves of E. coli ATCC 25922 and P. aeruginosa ATCC 27853. Volumes of 10 mL of TSB liquid cultures containing 1–5 × 10^5 CFU/mL in the logarithmic phase were adjusted in Falcon tubes. Peptide dendrimers were then added at MIC and sub-inhibitory concentrations (½ MIC and ¼ MIC). Incubation was performed in RTS-1C real-time reverse spin bioreactors RTS-1 (Biosan) for 24 h at 37 °C and 2000 rpm. Growth was measured noninvasively as optical density (OD 850 nm) every 15 min.
# E. coli ATCC 25922 [2] = assay: Atomic force microscopy of treated bacteria; type: cell-based; conditions: E. coli ATCC 25922, dendrimer at MIC, 4 h, 37 °C
# Method: E. coli ATCC 25922 was grown at 37 °C in Mueller Hinton cation-adjusted broth to an optical density of 0.25 at 625 nm. Dendrimers were added to a starting inoculum of 10^6 CFU/mL and incubated for 4 h at 37 °C with shaking. Untreated E. coli was included as a control. Cells in 1 mL of culture were centrifuged at 5000 rpm for 5 min and washed three times with 1 mL of sterile water. The bacterial cells were then resuspended in 100 µL of sterile water and a 10 µL drop was applied to a freshly cleaved mica surface and allowed to dry for approximately 10 min at room temperature.
# The disk surfaces were analyzed by atomic force microscopy using an AFM XE-70 (Park Systems, Suwon, Korea) in non-contact mode with an ACTA 10M cantilever. […] The AFM images were processed using a scanning probe image processor XEI (Park Systems), correcting the plane of the AFM image for any coupling of the lateral plane and the z-axis caused by the instrument.
# P. aeruginosa P12 = assay: microbe, parasite or virus in culture; type: cell-based; conditions: P12, 24 h
# Method: (§1) E. coli ATCC 25922, P. aeruginosa ATCC 27853, S. aureus ATCC 29213, P. aeruginosa 666 SJD (ciprofloxacin-resistant), P. aeruginosa P12, P13, P15, P16 and P17 (MDR isolates) and E. coli 7987, 5545, 8248, 13974, 7259 and 208691 (MDR isolates) from our own collection were included in the present study.
# (§2) The antimicrobial activity of the dendrimers was evaluated against E. coli ATCC 25922, P. aeruginosa ATCC 27853 and S. aureus ATCC 29213 strains. The MIC values were determined by the broth microdilution method. Briefly, the different strains were grown in Muller Hinton broth cation adjusted (MHBCA) medium overnight at 37 °C with shaking at 200 rpm. The bacterial cultures were then adjusted to OD625nm of 0.08–0.1, and 5 μL of each diluted suspension was added to 96-well plates previously filled with MHBCA and serially diluted peptides. Plates were incubated for 24 h at 37 °C. Finally, the MIC was determined macroscopically, based on the visual turbidity of the wells.
# P. aeruginosa P17 = assay: microbe, parasite or virus in culture; type: cell-based; conditions: P17, 24 h
# Method: as §1, §2
# E. coli 13974 = assay: microbe, parasite or virus in culture; type: cell-based; conditions: 13974, 24 h
# Method: as §1, §2
# P. aeruginosa P15 = assay: microbe, parasite or virus in culture; type: cell-based; conditions: P15, 24 h
# Method: as §1, §2
# E. coli 5545 = assay: microbe, parasite or virus in culture; type: cell-based; conditions: 5545, 24 h
# Method: as §1, §2
# E. coli 7987 = assay: microbe, parasite or virus in culture; type: cell-based; conditions: 7987, 24 h
# Method: as §1, §2
# E. coli 7259 = assay: microbe, parasite or virus in culture; type: cell-based; conditions: 7259, 24 h
# Method: as §1, §2
# E. coli 208691 = assay: microbe, parasite or virus in culture; type: cell-based; conditions: 208691, 24 h
# Method: as §1, §2
# E. coli 8248 = assay: microbe, parasite or virus in culture; type: cell-based; conditions: 8248, 24 h
# Method: as §1, §2
# P. aeruginosa P16 = assay: microbe, parasite or virus in culture; type: cell-based; conditions: P16, 24 h
# Method: as §1, §2
# P. aeruginosa P13 = assay: microbe, parasite or virus in culture; type: cell-based; conditions: P13, 24 h
# Method: as §1, §2
# [3] = test system: Hep G2 hepatocellular carcinoma cell line; assay: Cytotoxicity, resazurin reduction; type: cell-based, human; conditions: HepG2 cells, 24 h, resazurin fluorescence
# Method: The cytotoxicity assay was performed in the human hepatocellular carcinoma cell line Hep G2 ATCC and murine L-929 fibroblasts (NCTC clone 929, ECACC 88102702) obtained from the laboratory of Dr. Pérez-Tomás (Cancer Cell Biology, University of Barcelona). The cytotoxicity of the selected peptides was determined by measuring the intracellular reduction of resazurin sodium salt (Sigma-Aldrich, St. Louis, MO, USA). Briefly, HepG2 and L-929 cells were grown in RPMI 1640 or MEM medium, respectively (Biochrom AG, Berlin, Germany), supplemented with 10% fetal bovine serum. Cells from pre-confluent cultures were harvested with trypsin-EDTA and maintained at 37 °C in 5% CO2. Then, 100 µL of each cell line was seeded into 96-well flat-bottomed microplates and incubated for 24 h at 37 °C. The medium was then replaced with 200 μL of medium containing the dendrimers at concentrations ranging from 64 to 0.125 μg/mL and the microplates were incubated for 24 h at 37 °C. Next, 20 μL of resazurin was added to each well and the plates were incubated under the same conditions for 24 h. Fluorescence was measured using a multiwell scanning spectrophotometer at an excitation wavelength of 530 nm and an emission wavelength of 590 nm. Cytotoxicity was then calculated by comparing the fluorescence of the treated and untreated cells (Figure S22).
# S. aureus ATCC 29213 = type: cell-based; conditions: ATCC 29213, 24 h
# Method: as §2
# P. aeruginosa ATCC 27853 [4] = type: cell-based; conditions: broth microdilution, MHBCA, 24 h, 37 °C, visual turbidity
# Method: as §2
# E. coli ATCC 25922 [5] = type: cell-based; conditions: broth microdilution, MHBCA, 24 h, 37 °C, visual turbidity
# Method: as §2
structure (smiles),measurement,setting,value
"CC(C)C[C@H](NC(=O)[C@H](CCCCN)NC(=O)[C@H](CC(C)C)NC(=O)[C@H](CCCCN)NC(=O)[C@H](CC(C)C)Nc1nc(NCCNC(=O)[C@H](CCCCN)NC(=O)[C@H](CC(C)C)NC(=O)[C@H](CCCCN)NC(=O)[C@H](CC(C)C)NC(=O)[C@H](CCCCN)NC(=O)[C@@H](N)CC(C)C)nc(NCCNC(=O)[C@H](CCCCN)NC(=O)[C@H](CC(C)C)NC(=O)[C@H](CCCCN)NC(=O)[C@H](CC(C)C)NC(=O)[C@H](CCCCN)NC(=O)[C@@H](N)CC(C)C)n1)C(=O)N[C@@H](CCCCN)C(N)=O [Dendrimer 2, H-[(LK)3-EDA]2-TA-(LK)3-NH2]",effect on growth curve (in words),P. aeruginosa ATCC 27853 [1],complete growth inhibition occurred at the MIC
same,bacterial surface alteration by AFM (in words),E. coli ATCC 25922 [2],significant surface damages
same,MIC,P. aeruginosa P12,32 µg/mL
same,MIC,P. aeruginosa P17,16 µg/mL
same,MIC,E. coli 13974,8 µg/mL
same,MIC,P. aeruginosa P15,16 µg/mL
same,MIC,E. coli 5545,8 µg/mL
same,MIC,E. coli 7987,4 µg/mL
same,MIC,E. coli 7259,2 µg/mL
same,MIC,E. coli 208691,8 µg/mL
same,MIC,E. coli 8248,8 µg/mL
same,MIC,P. aeruginosa P16,32 µg/mL
same,MIC,P. aeruginosa P13,32 µg/mL
same,"% Cytotoxicity at 64µg/mL, HepG2",[3],0%
same,MIC S. aureus ATCC 29213,S. aureus ATCC 29213,>64 µg/mL
same,MIC P. aeruginosa ATCC 27853,P. aeruginosa ATCC 27853 [4],16 µg/mL
same,MIC E. coli ATCC 25922,E. coli ATCC 25922 [5],2 µg/mL
"CC(C)C[C@H](NC(=O)c1ccc(Oc2nc(NCCNC(=O)[C@H](CCCCN)NC(=O)[C@H](CC(C)C)NC(=O)[C@H](CCCCN)NC(=O)[C@H](CC(C)C)NC(=O)[C@H](CCCCN)NC(=O)[C@@H](N)CC(C)C)nc(NCCNC(=O)[C@H](CCCCN)NC(=O)[C@H](CC(C)C)NC(=O)[C@H](CCCCN)NC(=O)[C@H](CC(C)C)NC(=O)[C@H](CCCCN)NC(=O)[C@@H](N)CC(C)C)n2)cc1)C(=O)N[C@@H](CCCCN)C(=O)N[C@@H](CC(C)C)C(=O)N[C@@H](CCCCN)C(=O)N[C@@H](CC(C)C)C(=O)N[C@@H](CCCCN)C(N)=O [Dendrimer 1, H-[(LK)3]2-(EDA)2-TA-PHBA-(LK)3-NH2] (I: LKLKLK-NH2 / II: H-LKLKLK / III: H-LKLKLK; linker I:N-II:C-III:C via X1)",effect on growth curve (in words),P. aeruginosa ATCC 27853 [1],noticeable growth delay
same,bacterial surface alteration by AFM (in words),E. coli ATCC 25922 [2],significant surface damages
same,MIC,P. aeruginosa P12,>128 µg/mL
same,MIC,P. aeruginosa P17,16 µg/mL
same,MIC,E. coli 13974,8 µg/mL
same,MIC,P. aeruginosa P15,>128 µg/mL
same,MIC,E. coli 5545,8 µg/mL
same,MIC,E. coli 7987,8 µg/mL
same,MIC,E. coli 7259,32 µg/mL
same,MIC,E. coli 208691,32 µg/mL
same,MIC,E. coli 8248,8 µg/mL
same,MIC,P. aeruginosa P16,64 µg/mL
same,MIC,P. aeruginosa P13,64 µg/mL
same,"% Cytotoxicity at 64µg/mL, HepG2",[3],0%
same,MIC S. aureus ATCC 29213,S. aureus ATCC 29213,>64 µg/mL
same,MIC P. aeruginosa ATCC 27853,P. aeruginosa ATCC 27853 [4],16 µg/mL
same,MIC E. coli ATCC 25922,E. coli ATCC 25922 [5],8 µg/mL
